The source of these data is patent US8815875B2 (Merck Sharp & Dohme Corp., priority 2008, dated 2014).

The target in this assay is FABP4 (Homo sapiens, UniProt P15090). Description: TdF (Temperature Dependence Fluorescence) assay, thermal shift, FABP4. It is filed as binding. The procedure, abridged: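 Binding measured as ΔTm versus protein alone; binding constants derived by nonlinear fitting with ΔHL set to −7 kcal/mol and ΔCpL to zero.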
FABP4, sequence (P15090 whole entry, species assumed): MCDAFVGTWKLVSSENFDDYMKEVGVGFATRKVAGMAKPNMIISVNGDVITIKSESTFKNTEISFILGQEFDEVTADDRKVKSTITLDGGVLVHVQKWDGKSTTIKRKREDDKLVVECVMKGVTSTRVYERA

On to `Cn1ccc(NCc2cc(=O)n3nc(-c4ccccc4)nc3[nH]2)n1` [1-90], for which the Kd is > 500 nM.

As to `CCc1cccc(OCc2cc(=O)n3nc(-c4ccccc4)nc3[nH]2)c1` [1-60], the “FABP4 TdF Kd” value is on record as “B (0.5 ≦ B < 0.001 μM)”.

For the compound `O=c1cc(CN2Cc3ccccc3C2)[nH]c2nc(-c3ccccc3)nn12` [1-14], the Kd was > 500 nM.

In the case of `COc1ccccc1C1(CNC(=O)C2(OCc3cc(=O)n4nc(-c5ccccc5)nc4[nH]3)CCCCC2)CC1` [48-12, N-((1-(2-methoxyphenyl)cyclopropyl)methyl)-1-((7-oxo-2-phenyl-4,7-dihydro-[1,2,4]triazolo[1,5-a]pyrimidin-5-yl)methoxy)cyclohexanecarboxamide], the Kd is ≤ 1 nM.

For `Cc1nc(-c2ccc(OCc3cc(=O)n4nc(-c5ccccc5)nc4[nH]3)c(F)c2)cs1` [1-34], the Kd was > 500 nM.

Turning to `Cn1nc(C2CC2)cc1NCc1cc(=O)n2nc(-c3ccccc3)nc2[nH]1` [1-151], the Kd was > 500 nM.

As for `Cc1cccc2c1OCCN2Cc1cc(=O)n2nc(-c3ccccc3)nc2[nH]1` [1-149], the “FABP4 TdF Kd” value is “B (0.5 ≦ B < 0.001 μM)”.

Turning to `CCc1ccc(NCc2cc(=O)n3nc(C(F)(F)F)nc3[nH]2)cc1` [5-2], the Kd was > 500 nM.

Consider `O=c1cc(COC2CCC2)[nH]c2nc(-c3ccccc3)nn12` [1-20], for which the Kd is > 500 nM.

As for `O=C(NCCc1cccc(Cl)c1)C1(OCc2cc(=O)n3nc(-c4ccccc4)nc3[nH]2)CCCCC1` [48-45], the “FABP4 TdF Kd” value is given as “B (0.5 ≦ B < 0.001 μM)”.

`O=C(NCC1(O)CCOCC1)c1c(Cl)cccc1OCc1cc(=O)n2nc(-c3ccccc3)nc2[nH]1` [47-25, 2-chloro-N-((4-hydroxytetrahydro-2H-pyran-4-yl)methyl)-6-((7-oxo-2-phenyl-4,7-dihydro-[1,2,4]triazolo[1,5-a]pyrimidin-5-yl)methoxy)benzamide]: the “FABP4 TdF Kd” value is given as “B (0.5 ≦ B < 0.001 μM)”.

For `O=c1c(Cl)c(COc2csc(C(F)(F)F)c2)[nH]c2nc(-c3ccccc3)nn12` [24-3], the “FABP4 TdF Kd” value is listed as “B (0.5 ≦ B < 0.001 μM)”.

For the compound `Cn1ccc(NC(=O)C2(OCc3cc(=O)n4nc(-c5ccccc5)nc4[nH]3)CCCCC2)n1` [48-33], the “FABP4 TdF Kd” value was “B (0.5 ≦ B < 0.001 μM)”.

Consider `O=c1cc(CN2CCOc3ccccc32)[nH]c2nc(-c3ccccc3)nn12` [1-36], for which the Kd is > 500 nM.

`CN(CC1CC1)C(=O)c1c(Cl)cccc1OCc1cc(=O)n2nc(-c3ccccc3)nc2[nH]1` [47-46]: the Kd was > 500 nM.

In the case of `Cc1c(Cl)cccc1N(Cc1cc(=O)n2nc(-c3ccccc3)nc2[nH]1)C1CC1` [17-2], the Kd is > 500 nM.

For the compound `O=C(N1CCOCC1)C1(OCc2cc(=O)n3nc(-c4ccccc4)nc3[nH]2)CCCCC1` [48-19], the dissociation constant (Kd) was > 500 nM.

For `O=c1cc(COc2cccc3ncccc23)[nH]c2nc(-c3ccccc3)nn12` [1-80], the “FABP4 TdF Kd” value is given as “B (0.5 ≦ B < 0.001 μM)”.

On to `CN(Cc1cc(=O)n2nc(-c3ccccc3)nc2[nH]1)c1cccc(Cl)c1C1CC1` [18-3], for which the “FABP4 TdF Kd” value is recorded as “B (0.5 ≦ B < 0.001 μM)”.

Consider `CN(CC1(c2ccccc2Cl)CC1)C(=O)C1(OCc2cc(=O)n3nc(-c4ccccc4)nc3[nH]2)CCCCC1` [48-42], for which the “FABP4 TdF Kd” value is “B (0.5 ≦ B < 0.001 μM)”.

For the compound `O=C(O)c1ccccc1OCc1cc(=O)n2nc(-c3ccccc3)nc2[nH]1` [47-53], the Kd is > 500 nM.

In the case of `Cc1c(OCc2cc(=O)n3nc(-c4ccccc4)nc3[nH]2)cccc1C(F)(F)F` [1-85], the “FABP4 TdF Kd” value is listed as “B (0.5 ≦ B < 0.001 μM)”.

Regarding `O=C(NC1CCc2c(Cl)cccc21)C1(OCc2cc(=O)n3nc(-c4ccccc4)nc3[nH]2)CCCCC1` (centres unmarked) [48-63], the “FABP4 TdF Kd” value is reported as “B (0.5 ≦ B < 0.001 μM)”.

In the case of `O=c1c(Cl)c(COc2cccc(Cl)c2C2CCC2)[nH]c2nc(-c3ccccc3)nn12` [26-4], the “FABP4 TdF Kd” value is “B (0.5 ≦ B < 0.001 μM)”.

On to `Cc1cc(OCc2cc(=O)n3nc(-c4ccccc4)nc3[nH]2)ccc1C(C)C` [1-70], for which the “FABP4 TdF Kd” value was “B (0.5 ≦ B < 0.001 μM)”.

With `CCc1ccc(OCc2cc(=O)n3nc(C4CCC4)nc3[nH]2)cc1` [8-6], the Kd was > 500 nM.

Take `O=C(NCC1(c2ccc(Cl)cc2)CCC1)c1c(Cl)cccc1OCc1cc(=O)n2nc(-c3ccccc3)nc2[nH]1` [47-24, 2-chloro-N-((1-(4-chlorophenyl)cyclobutyl)methyl)-6-((7-oxo-2-phenyl-4,7-dihydro-[1,2,4]triazolo[1,5-a]pyrimidin-5-yl)methoxy)benzamide]: the dissociation constant Kd was ≤ 1 nM.

Take `COC[C@@H]1CCCN1C(=O)C1(OCc2cc(=O)n3nc(-c4ccccc4)nc3[nH]2)CCCCC1` [48-5, (S)-5-((1-(2-(methoxymethyl)pyrrolidine-1-carbonyl)cyclohexyloxy)methyl)-2-phenyl-[1,2,4]triazolo[1,5-a]pyrimidin-7(4H)-one]: the Kd was > 500 nM.

For `CC1(C)CN(C(=O)C2(OCc3cc(=O)n4nc(-c5ccccc5)nc4[nH]3)CCCCC2)CCO1` [48-25], the “FABP4 TdF Kd” value is “B (0.5 ≦ B < 0.001 μM)”.

In the case of `O=C(NCC1(CO)CC1)c1c(Cl)cccc1OCc1cc(=O)n2nc(-c3ccccc3)nc2[nH]1` [47-18, 2-chloro-N-((1-(hydroxymethyl)cyclopropyl)methyl)-6-((7-oxo-2-phenyl-4,7-dihydro-[1,2,4]triazolo[1,5-a]pyrimidin-5-yl)methoxy)benzamide], the “FABP4 TdF Kd” value is “B (0.5 ≦ B < 0.001 μM)”.

Take `CN(C(=O)C1(OCc2cc(=O)n3nc(-c4ccccc4)nc3[nH]2)CCCCC1)C1CC1` [48-28]: the “FABP4 TdF Kd” value was “B (0.5 ≦ B < 0.001 μM)”.

As for `C=CCc1ccc(Cl)cc1OCc1cc(=O)n2nc(-c3ccccc3)nc2[nH]1` [42-4], the “FABP4 TdF Kd” value is “B (0.5 ≦ B < 0.001 μM)”.

`CN1CCN(CCNCc2c(Cl)cccc2OCc2cc(=O)n3nc(-c4ccccc4)nc3[nH]2)CC1` [33-3]: the Kd is > 500 nM.

For the compound `CC(=O)c1c(Cl)cccc1OCc1cc(=O)n2nc(-c3ccccc3)nc2[nH]1` [31-2], the “FABP4 TdF Kd” value was “B (0.5 ≦ B < 0.001 μM)”.

`CCCCC1(C)CN(Cc2cc(=O)n3nc(-c4ccccc4)nc3[nH]2)c2cccc(Cl)c21` (centres unmarked) [41-3]: the “FABP4 TdF Kd” value is “B (0.5 ≦ B < 0.001 μM)”.

On to `CN1CCC(OCc2cc(=O)n3nc(-c4ccccc4)nc3[nH]2)CC1` [1-45], for which the Kd is > 500 nM.

As to `O=C(NC1CC1)C1(OCc2cc(=O)n3nc(-c4ccccc4)nc3[nH]2)CCCCC1` [48-18], the Kd was > 500 nM.

For the compound `O=C(NCC1(c2ccc(Cl)cc2)CC1)c1c(Cl)cccc1OCc1cc(=O)n2nc(-c3ccccc3)nc2[nH]1` [47-4, 2-chloro-N-((1-(4-chlorophenyl)cyclopropyl)methyl)-6-((7-oxo-2-phenyl-4,7-dihydro-[1,2,4]triazolo[1,5-a]pyrimidin-5-yl)methoxy)benzamide], the Kd was ≤ 1 nM.

`O=C(NCC1(O)CCOCC1)C1(OCc2cc(=O)n3nc(-c4ccccc4)nc3[nH]2)CCCCC1` [48-61]: the “FABP4 TdF Kd” value was “B (0.5 ≦ B < 0.001 μM)”.

On to `CN(C(=O)c1ccccc1OCc1[nH]c2nc(-c3ccccc3)nn2c(=O)c1Cl)C1CCCCC1` [24-12], for which the “FABP4 TdF Kd” value was “B (0.5 ≦ B < 0.001 μM)”.

Consider `CC(C)c1ccccc1OCc1cc(=O)n2nc(-c3ccccc3)nc2[nH]1` [1-66], for which the “FABP4 TdF Kd” value was “B (0.5 ≦ B < 0.001 μM)”.

As to `O=c1c(Br)c(COc2cccc(Cl)c2C2CC2)[nH]c2nc(-c3ccccc3)nn12` [23-1], the “FABP4 TdF Kd” value is “B (0.5 ≦ B < 0.001 μM)”.

In the case of `O=c1cc(COc2ccc(C(F)(F)F)cc2)[nH]c2nc(-c3ccccc3)nn12` [1-7], the Kd was > 500 nM.

As to `O=c1cc(COc2ccc(I)cc2)[nH]c2nc(-c3ccccc3)nn12` [1-30], the Kd was > 500 nM.

For the compound `O=c1cc(COc2c(Cl)ccc(Cl)c2Cl)[nH]c2nc(-c3ccccc3)nn12` [1-31], the “FABP4 TdF Kd” value is recorded as “B (0.5 ≦ B < 0.001 μM)”.

For the compound `CCc1ccc(OCc2cc(=O)n3nc(COC(C)=O)nc3[nH]2)cc1` [8-9], the Kd is > 500 nM.

In the case of `O=c1cc(COc2cccc(Cl)c2CNCCN2CCOCC2)[nH]c2nc(-c3ccccc3)nn12` [33-2], the Kd was > 500 nM.

Regarding `CN(Cc1cc(=O)n2nc(-c3ccccc3)nc2[nH]1)C1CCCCC1` [1-15], the Kd was > 500 nM.

With `O=C(NC1(c2ccccc2Cl)CC1)C1(OCc2cc(=O)n3nc(-c4ccccc4)nc3[nH]2)CCCCC1` [48-8], the Kd was ≤ 1 nM.

As to `O=c1cc(COc2cccc(F)c2)[nH]c2nc(-c3ccccc3)nn12` [1-93], the “FABP4 TdF Kd” value was “B (0.5 ≦ B < 0.001 μM)”.

Consider `O=C(NC1(CO)CCOCC1)c1c(Cl)cccc1OCc1cc(=O)n2nc(-c3ccccc3)nc2[nH]1` [47-21, 2-chloro-N-(4-(hydroxymethyl)tetrahydro-2H-pyran-4-yl)-6-((7-oxo-2-phenyl-4,7-dihydro-[1,2,4]triazolo[1,5-a]pyrimidin-5-yl)methoxy)benzamide], for which the “FABP4 TdF Kd” value is given as “B (0.5 ≦ B < 0.001 μM)”.

For `Cc1cc(OCc2cc(=O)n3nc(-c4ccccc4)nc3[nH]2)n(C)n1` [1-37], the Kd was > 500 nM.

As to `Cc1c(Cl)cccc1OCc1[nH]c2nc(-c3ccccc3)nn2c(=O)c1Br` [2-1], the “FABP4 TdF Kd” value is listed as “B (0.5 ≦ B < 0.001 μM)”.

For the compound `O=C(NCC1CCC1)c1ccccc1OCc1cc(=O)n2nc(-c3ccccc3)nc2[nH]1` [47-56], the “FABP4 TdF Kd” value is on record as “B (0.5 ≦ B < 0.001 μM)”.

Consider `O=c1cc(COc2cccc(Cl)c2CC2CC2)[nH]c2nc(-c3ccccc3)nn12` [43-2], for which the “FABP4 TdF Kd” value is listed as “B (0.5 ≦ B < 0.001 μM)”.

Consider `O=C(NCC1(c2ccccc2Cl)CCC1)C1(OCc2cc(=O)n3nc(-c4ccccc4)nc3[nH]2)CCCCC1` [48-34], for which the “FABP4 TdF Kd” value is listed as “B (0.5 ≦ B < 0.001 μM)”.

`O=c1cc(Cn2ccc3c(Cl)cccc32)[nH]c2nc(-c3ccccc3)nn12` [1-11]: the “FABP4 TdF Kd” value is “B (0.5 ≦ B < 0.001 μM)”.

`O=C(O)C1(OCc2cc(=O)n3nc(C(F)(F)F)nc3[nH]2)CCCCC1` [54-1]: the Kd was > 500 nM.

`N#Cc1c(Cl)cccc1OCc1cc(=O)n2nc(-c3ccccc3)nc2[nH]1` [1-24]: the “FABP4 TdF Kd” value was “B (0.5 ≦ B < 0.001 μM)”.

For the compound `Cc1c(Cl)cccc1OCc1cc(=O)n2nc(-c3cnccn3)nc2[nH]1` [25-5], the Kd is > 500 nM.

For `NCc1cccc(OCc2cc(=O)n3nc(-c4ccccc4)nc3[nH]2)c1C1CC1` [46-3], the Kd is > 500 nM.

With `O=c1cc(COC2CCOCC2)[nH]c2nc(-c3ccccc3)nn12` [1-76], the Kd was > 500 nM.

The term Kd denotes the constant that tells how readily two partners part at equilibrium.
